Experiment [1] relates to hepatic mitochondrial fluxes (VPC, VCS). The experiment is described as follows: PINTA / ex vivo NMR tracer study in rats infused with [3-^13C]lactate and [3-^3H]glucose (Example 1). Particulars: 120 min [3-^13C]lactate infusion, mean ± S.E.M. An excerpt:
Male Sprague-Dawley rats (˜10 weeks of age) were ordered from Charles River (Wilmington, Mass.) at ˜300 g and fed regular chow unless otherwise specified. […] Prior to studies, rats underwent surgery under general isoflurane anesthesia to place polyethylene catheters in the jugular vein and common carotid artery (PE90 and PE50 tubing, respectively; Instech, Plymouth Meeting, Pa.). After 1 week, recovery was verified by confirming that the rats had regained their surgical weight. Unless otherwise specified, all experiments were performed following an overnight fast (16 hrs food withdrawal prior to sacrifice). In both the rodent and human studies, data are represented as the mean of two technical replicates for each subject (i.e. two technical replicates per biological replicate). Sample sizes were selected to give power to detect moderate to large differences between groups (n=5-6 per group), and all animals were included in the final analysis.
The investigator performing the animal studies was not blinded for practical reasons, but the investigators analyzing fluxes were blinded as to the group allocation.
The flux calculations required the following equations using [^13C] glucose positional enrichment in plasma or liver, determined by NMR and GC/MS mass spectrometry. VPC is the rate of pyruvate carboxylase flux as determined from the anaplerotic flow into oxaloacetate (OAA). VCS is defined as the flux of the citrate synthase reaction in the citric acid cycle. […] G2 denotes [m+2] glucose arising from the condensation of two singly-labeled trioses.
GC/MS was used to measure m+1 and m+2 [^13C]glucose enrichment. The total m+1 and m+2 [^13C]glucose enrichment was measured using a pentaacetate derivative: plasma or liver samples were deproteinized using 5 volumes of methanol, dried, and derivatized with 75 μL of 1:1 acetic anhydride:pyridine. After heating to 65° C. for 20 min, the reaction was terminated by adding 25 μL methanol, and m+1 and m+2 (as well as m+3 . . . m+6) were determined by GC/MS (CI mode, m/z 331 [m], 332 [m+1], 333 [m+2], . . . 337 [m+6]). The m+1 and m+2 [^13C] enrichments of the glucose C4C5C6 fragment were determined by generating the aldonitrile pentapropionate derivative: plasma or NMR liver extract samples were dried under N2 gas, and 50 μl hydroxylamine hydrochloride (20 mg/ml in pyridine) were added. The samples were heated at 90° C. for 60 min, then 100 μl propionic anhydride was added, after which the samples were heated at 60° C. for 30 min. Finally, the samples were evaporated under N2 gas, resuspended in ethyl acetate, and the m+1 and m+2 enrichment of the glucose C4C5C6 fragment was measured by GC/MS.
[^13C]alanine enrichment was measured by GC/MS. [^13C] NMR spectroscopy using the BRUKER TOPSPIN® system was utilized to measure relative positional 13C-enrichment of glucose, and combined with the total [^13C]glucose enrichment ([m+1]+2*[m+2]) measured by GC/MS to calculate the positional enrichment of [13C]glucose.
Total [^13C]glutamate enrichment was determined by LC-MS/MS. Approximately 100 mg of liver tissue was weighed out and homogenized in 500 μl ice-cold methanol using a TissueLyser, then centrifuged at 4000 rpm for 10 minutes. The supernatant was then purified by centrifugation (4000 rpm, 10 min) through the PALL NANOSEP® filter (100K) (Port Washington, N.Y.). Glutamate 13C enrichment ([m+1], [m+2]) was then assessed by LC-MS/MS using an AB SCIEX QTRAP 6500 (Framingham, Mass.), equipped with a SHIMADZU ultra-fast liquid chromatography (UFLC) system (Columbia, Md.) and electrospray ionization (ESI) source with negative-ion detection. The measured ion pairs were 146/128 (m0), 147/129 (m+1), and 148/130 (m+2).
Positional enrichment of glucose, glutamate, and alanine was measured by 13C NMR.

Experiment [2] relates to primary mouse hepatocytes. The experiment is described as follows: In vitro glucose production, VPC and lipolysis in isolated hepatocytes. It counts as cell-based. The gist of the method:
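Primary mouse hepatocytes were plated and cultured overnight in low-glucose DMEM, with 10% FBS for glucose production or serum-free 0.5% BSA medium for lipolysis. Media were then collected after 8 hr at 37° C for glucose, NEFA and glycerol, and VPC was derived as the PINTA VPC/VEGP ratio × glucose production. Agents were present through the 8-hr assay, and values were normalized to total protein and expressed as fold change vs vehicle.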

[3] abbreviates: isolated WT hepatocytes, 100 nM glucagon, 8 hr.

With glucagon, in experiment [1] (rat liver), the “VPDH/VCS (%)” value was found to be 2.7 ± 0.1% and the “VPK+ME/VPC+PDH (%)” value is under 2%. In experiment [1] (rats), the “VPC/VEGP (%)” value was 65 ± 3%. Also, the “increases in NEFA and glycerol production” value in experiment [2] (WT hepatocytes, glucagon, not InsP3R-I deficient) was 60-100%. Besides, in experiment [2] (setting [3]), the “increase in VPC flux” value was “two-fold” and the “increase in glucose production” value was “two-fold”.

The values above are taken from patent US11484608B2, “Non-invasive assessment of hepatic mitochondrial metabolism by positional isotopomer NMR tracer analysis (PINTA)” (YALE UNIVERSITY, priority 2017, dated 2022).
